Source: patent publication US20160044917A1, “LOW ENVIRONMENTAL IMPACT PESTICIDE MADE FROM "GRAS" INGREDIENTS FOR USE AGAINST COQUI FROGS AND OTHER SPECIES” (priority 2015, published 2016)
Where two headings read alike, the source gives them in different places.

Tests used:
[1] = test system: frogs; test: Frog killing time with different concentrations; format: in vivo; settings: concentrations from about 5% to about 10%
Description: Additionally, this formulation killed 10 out of 10 frogs within about 15 minutes. More over, concentrations using proprionic acid ranging from about 5% to about 10% were lethal to the frogs in the test group.

[2] = test system: human skin; test: Contact of acid solution with human skin or hand; format: in vivo; settings: solution with a pH of less than 0.5
Description: As discussed above, AGIIS has relatively less dehydrating properties (such as charring sucrose) as compared to the saturated solution of CaSO4 in the same concentration of H2SO4. […] AGIIS has low volatility at room temperature and pressure.
In view of the need to find new phytogenic friendly alternatives for controlling the spread of Coqui frogs, a commercially available food sanitation product (i.e. Acidic Calcium Sulfate (“ACS”) was evaluated for inclusion in the current inventory of chemicals that can be applied as sprays. ACS and functional equivalents thereof are made from ingredients that are generally regarded as safe (“GRAS”), and is approved for use in food by the FDA and USDA. Although not wanting to be bound by theory, the efficacy of this product stems from its very unique characteristic of being able to donate a very high activity of hydrogen ions (low pH), while at the same time, having very low oxidative effects on plants and human skin. For example, a five (5) normal concentration of ACS having a pH of approximately zero may be held in the human hand without harm to the person holding the acid. In contrast, when very small amounts are applied to the skin of Coqui frogs it is quickly absorbed and respiration is immediately impaired with lethal results. […]

[3] = test system: common plants; settings: citric acid 25%, three days after treatment, cited from earlier work

## CCC(=O)O [propionic acid]
[1]
  lethality to the frogs in the test group: lethal

## O=S(=O)(O)O [sulfuric acid]
[2]
  effect on hand put into the solution: an irritation would occur

## O=C(O)CC(O)(CC(=O)O)C(=O)O [citric acid]
[3]; bromeliad
  phytotoxicity rating: moderate
[3]; calathea
  phytotoxicity rating: severe
[3]; dendrobium orchid
  phytotoxicity rating: moderate
[3]; eggplants
  phytotoxicity rating: severe
[3]; guava plant
  phytotoxicity rating: moderate
[3]; leatherleaf fern
  phytotoxicity rating: moderate
[3]; passion fruit
  phytotoxicity rating: slight
[3]; payaya
  phytotoxicity rating: slight
[3]; streptocarpus
  phytotoxicity rating: severe
